SMILES strings stand for the structures. In brackets after ≈: the same amount, converted by molar mass. A value given as a limit tells only on which side of the number the result lay.

The test deals with EGFR (UniProt P00533).
Chain of EGFR (P00533 whole entry, looked up): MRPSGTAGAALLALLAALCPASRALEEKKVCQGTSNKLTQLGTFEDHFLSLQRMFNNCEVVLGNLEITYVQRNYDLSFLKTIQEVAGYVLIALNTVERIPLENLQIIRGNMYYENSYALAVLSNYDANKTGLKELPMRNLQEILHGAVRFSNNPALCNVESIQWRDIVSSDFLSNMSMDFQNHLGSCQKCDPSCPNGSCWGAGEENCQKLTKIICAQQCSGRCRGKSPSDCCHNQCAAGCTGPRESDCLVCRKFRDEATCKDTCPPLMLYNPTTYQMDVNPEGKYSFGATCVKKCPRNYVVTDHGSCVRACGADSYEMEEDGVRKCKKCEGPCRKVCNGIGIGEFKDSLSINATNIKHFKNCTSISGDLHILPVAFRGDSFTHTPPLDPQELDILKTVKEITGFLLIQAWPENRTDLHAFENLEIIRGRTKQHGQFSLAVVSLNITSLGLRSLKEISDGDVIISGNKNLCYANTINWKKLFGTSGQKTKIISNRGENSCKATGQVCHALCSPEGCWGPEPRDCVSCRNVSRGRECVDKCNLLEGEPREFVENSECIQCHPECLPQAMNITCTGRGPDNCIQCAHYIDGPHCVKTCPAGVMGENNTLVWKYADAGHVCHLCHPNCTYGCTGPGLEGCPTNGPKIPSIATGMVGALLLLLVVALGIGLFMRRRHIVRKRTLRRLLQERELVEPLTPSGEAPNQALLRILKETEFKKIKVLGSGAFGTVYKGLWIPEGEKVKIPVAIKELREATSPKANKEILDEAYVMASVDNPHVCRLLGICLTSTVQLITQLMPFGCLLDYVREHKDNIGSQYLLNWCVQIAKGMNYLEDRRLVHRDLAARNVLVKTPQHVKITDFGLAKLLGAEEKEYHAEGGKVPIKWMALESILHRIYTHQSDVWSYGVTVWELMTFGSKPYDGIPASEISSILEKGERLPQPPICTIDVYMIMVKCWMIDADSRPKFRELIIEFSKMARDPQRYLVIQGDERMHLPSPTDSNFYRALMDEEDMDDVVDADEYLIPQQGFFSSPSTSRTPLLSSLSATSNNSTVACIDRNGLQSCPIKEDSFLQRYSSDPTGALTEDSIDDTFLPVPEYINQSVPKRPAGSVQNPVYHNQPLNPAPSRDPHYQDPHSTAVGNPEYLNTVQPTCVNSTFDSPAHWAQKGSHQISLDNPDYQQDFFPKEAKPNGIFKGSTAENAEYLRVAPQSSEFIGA
In turn, `COc1cc(Nc2ncnc(-n3c(Nc4ccc5[nH]ncc5c4)nc4ccccc43)n2)cc(OC)c1OC` yielded a half-maximal inhibitory concentration (IC50) of 3.5 to 4.5 µg/mL (≈ 6.87 to 8.83 µM). The figure for `NC(=O)c1cccc(Nc2ncnc(Nc3cc(-c4ccco4)n[nH]3)n2)c1` is less than 0.4 µg/mL; for `COc1ccc(Nc2ncnc(NCCC#N)n2)cc1OC` it is more than 4.5 µg/mL. As to `COc1cc(Nc2ncnc(Nc3cccc(OCc4ccccc4)c3)n2)cc(OC)c1OC`, the concentration for half-maximal inhibition (IC50) was more than 4.5 µg/mL.

Consider `COc1cc(Nc2ncnc(-n3ccc4ccc(F)cc43)n2)cc(OC)c1OC`, for which the IC50 was more than 4.5 µg/mL.

With `COCCOc1ccc(Nc2ncnc(Nc3ccc4[nH]ccc4c3)n2)cc1OCCOC`, the half-inhibitory concentration (IC50) was less than 0.4 µg/mL. As to `COc1cc(Nc2ncnc(NC3CC3c3ccccc3)n2)cc(OC)c1OCCN1CCOCC1` (configuration not stated), the concentration for half-maximal inhibition (IC50) was less than 0.4 µg/mL.

As to `Brc1ccc(Nc2ncnc(-n3cccc3)n2)cc1`, the IC50 is more than 4.5 µg/mL.

The compound `CC(C)Nc1ncccc1-c1ncnc(Nc2cccc(CC(=O)O)c2)n1` registered an IC50 of more than 4.5 µg/mL. Turning to `COC(=O)c1ccc(-c2cc(Nc3ncnc(Nc4cccc5ncccc45)n3)[nH]n2)cc1`, the half-maximal inhibitory concentration (IC50) was more than 4.5 µg/mL. `COC(=O)c1ccc(-c2cc(Nc3ncnc(NC4=NC(=O)CS4)n3)[nH]n2)cc1`: the IC50 lay within 0.4 to 2.4 µg/mL (≈ 0.975 to 5.85 µM). Take `COc1cc(Nc2ncnc(Nc3ccccn3)n2)cc(OC)c1OC`: the half-maximal inhibitory concentration (IC50) was more than 4.5 µg/mL. Regarding `Cc1ccc2c(c1)CCCN2c1ncnc(NCc2cccnc2)n1`, the concentration for half-maximal inhibition (IC50) was more than 4.5 µg/mL. The figure for `COc1ccc2c(c1)nc(NCc1ccccn1)n2-c1ncnc(Nc2cc(OC)c(OC)c(OC)c2)n1.COc1ccc2nc(NCc3ccccn3)n(-c3ncnc(Nc4cc(OC)c(OC)c(OC)c4)n3)c2c1` is more than 4.5 µg/mL. For the compound `COc1cc(Nc2ncnc(-n3c(Nc4ccc(OC(F)(F)F)cc4)nc4ccccc43)n2)cc(OC)c1OC`, the 50% inhibitory concentration (IC50) fell in the range of 2.4 to 3.5 µg/mL (≈ 4.34 to 6.32 µM).

Regarding `COc1cc(Nc2ncnc(-n3c(Nc4cccc(F)c4)nc4ccccc43)n2)cc(OC)c1OC`, the IC50 fell in the range of 2.4 to 3.5 µg/mL (≈ 4.92 to 7.18 µM). The figure for `COc1cc(Nc2ncnc(-n3c(Nc4ccccc4C(C)C)nc4ccccc43)n2)cc(OC)c1OC` is more than 4.5 µg/mL; for `COc1cc(Nc2ncnc(N(C)c3ccc4c(cnn4Cc4ccccc4)c3)n2)cc(OC)c1OC` it is less than 0.4 µg/mL; for `COc1cc(Nc2ncnc(-n3c(=O)[nH]c4ccccc43)n2)cc(OCCN2CCOCC2)c1OC` it is more than 4.5 µg/mL.

The compound `COc1cc(Nc2ncnc(-n3c(Nc4cccc5cccnc45)nc4ccccc43)n2)cc(OC)c1OC` had an IC50 of more than 4.5 µg/mL. As to `COc1ccc(Nc2ncnc(NCCCN3CCCCC3C)n2)cc1OC` (configuration not stated), the IC50 is more than 4.5 µg/mL. The figure for `COc1ccc(Nc2ncnc(Nc3cc(-c4ccccc4)n[nH]3)n2)cc1OC` is 0.4 to 2.4 µg/mL (≈ 1.03 to 6.16 µM); for `COc1cc(Nc2ncnc(Nc3cc(-c4ccc(C(=O)N(C)C)cc4)n[nH]3)n2)cc(OC)c1OC` it is 0.4 to 2.4 µg/mL (≈ 0.815 to 4.89 µM); for `O=c1[nH]c2ccccc2n1-c1ncnc(Nc2ccc(-c3cnco3)cc2)n1` it is more than 4.5 µg/mL.

Turning to `COC(=O)Cc1cccc(Nc2ncnc(-n3c(NCc4ccc(OC)cc4)nc4ccccc43)n2)c1`, the 50% inhibitory concentration (IC50) is more than 4.5 µg/mL. Compound `NC(=O)c1ccc(Nc2ncnc(Nc3cc(-c4ccco4)n[nH]3)n2)cc1` registered an IC50 of 2.4 to 3.5 µg/mL (≈ 6.62 to 9.66 µM).

For the compound `COc1cc(Nc2ncnc(Cc3ccc4c(cnn4Cc4ccccc4)c3)n2)cc(OC)c1OCCN1CCOCC1`, the IC50 was less than 0.4 µg/mL. In the case of `O=c1[nH]c2ccccc2n1-c1ncnc(Nc2ccc3[nH]ncc3c2)n1`, the IC50 was more than 4.5 µg/mL.

The compound `COc1cc(Nc2ncnc(Nc3ccc4[nH]ccc4c3)n2)cc(OC)c1OC` showed an IC50 of less than 0.4 µg/mL.

For the compound `COc1ccc(Nc2ncnc(N(C)c3cccc(Cl)c3)n2)cc1OC`, the IC50 is less than 0.4 µg/mL.

As to `COC(=O)Cc1cccc(Nc2ncnc(-n3c(NCc4ccccn4)nc4ccccc43)n2)c1`, the concentration for half-maximal inhibition (IC50) is more than 4.5 µg/mL. Compound `COc1cc(Nc2ncnc(-n3cc(C)c4ccccc43)n2)cc(OC)c1OC` returned an IC50 of more than 4.5 µg/mL. `CN(C)CCNc1ncnc(Nc2ccc3c(cnn3Cc3ccccc3)c2)n1` registered an IC50 of 0.4 to 2.4 µg/mL (≈ 1.03 to 6.18 µM). The figure for `COCCOc1ccc(Nc2ncnc(Nc3ccc(C)c(F)c3)n2)cc1OCCOC` is more than 4.5 µg/mL; for `O=c1[nH]c2ccccc2n1-c1ncnc(Nc2nccc3ccccc23)n1` it is 0.4 to 2.4 µg/mL (≈ 1.13 to 6.75 µM); for `CC(C)Nc1ncccc1-c1ncnc(Nc2cccc(CO)c2)n1` it is 3.5 to 4.5 µg/mL (≈ 10.4 to 13.4 µM).

`CC(C)(C)c1cc(Nc2ncnc(Nc3ccc(CO)cc3)n2)[nH]n1` displayed an IC50 of 0.4 to 2.4 µg/mL (≈ 1.18 to 7.07 µM). In turn, `COc1cccc(Nc2ncnc(Nc3ccc(OCc4ccccc4)cc3)n2)c1` registered an IC50 of 0.4 to 2.4 µg/mL (≈ 1 to 6.01 µM).

Turning to `COc1cc(Nc2ncnc(N)n2)cc(OC)c1OC`, the IC50 was more than 4.5 µg/mL. `COc1cc(Nc2ncnc(-n3c(NCC(N)=O)nc4ccccc43)n2)cc(OC)c1OC` had an IC50 of more than 4.5 µg/mL. The figure for `COc1ccccc1Nc1nc2ccccc2n1-c1ncnc(Nc2cc(OC)c(OC)c(OC)c2)n1` is more than 4.5 µg/mL. Regarding `COc1cc(Nc2ncnc(-c3cccnc3NC3CCCc4ccccc43)n2)cc(OC)c1OC` (configuration not stated), the 50% inhibitory concentration (IC50) is 3.5 to 4.5 µg/mL (≈ 7.22 to 9.29 µM).

For the compound `COc1cc(Nc2ncnc(N3CCCCC3)n2)cc(OC)c1OC`, the 50% inhibitory concentration (IC50) was more than 4.5 µg/mL. The figure for `COc1cc(Nc2nc3ccccc3n2-c2ncnc(Nc3cc(OC)c(OC)c(OC)c3)n2)cc(OC)c1` is more than 4.5 µg/mL. The figure for `COc1cc(Nc2ncnc(N(CC(=O)OC(C)(C)C)c3ccc4c(c3)OCO4)n2)cc(OC)c1OC` is 2.4 to 3.5 µg/mL (≈ 4.69 to 6.84 µM); for `COc1cc(Nc2ncnc(-n3cc(C#N)c4ccccc43)n2)cc(OC)c1OC` it is more than 4.5 µg/mL. As to `COc1cc(Nc2ncnc(-c3cccnc3)n2)cc(OC)c1OC`, the IC50 was more than 4.5 µg/mL.

The compound `O=C(O)c1cccc(Nc2ncnc(-n3c(NCc4ccccc4)nc4ccccc43)n2)c1` returned a 50% inhibitory concentration (IC50) of less than 0.4 µg/mL.

For the compound `COc1ccc2c(ccn2-c2ncnc(Nc3cc(OC)c(OC)c(OC)c3)n2)c1`, the IC50 lay in the range of 3.5 to 4.5 µg/mL (≈ 8.59 to 11 µM). The figure for `Nc1ncnc(-n2c(N)nc3ccccc32)n1` is more than 4.5 µg/mL. The figure for `COc1cc(Nc2ncnc(Nc3ncnc4[nH]cnc34)n2)cc(OC)c1OC` is more than 4.5 µg/mL.

The compound `COc1cc(Nc2ncnc(-c3ccnc(NCCCO)c3)n2)cc(OC)c1OC` returned an IC50 of more than 4.5 µg/mL. The figure for `CCN(CC)CCOc1cc(Nc2ncnc(Nc3cc(OC)c(OC)c(OC)c3)n2)ccc1OC` is more than 4.5 µg/mL. In the case of `Nc1nc2ccccc2n1-c1ncnc(N2C(=O)c3ccccc3C2=O)n1`, the IC50 was more than 4.5 µg/mL.

`CC(C)(C)OC(=O)NCc1cccc(Nc2ncnc(Nc3cc(-c4ccco4)n[nH]3)n2)c1` came in with a half-inhibitory concentration (IC50) of 0.4 to 2.4 µg/mL (≈ 0.892 to 5.35 µM). For `COc1cc(Nc2ncnc(-c3cccnc3Nc3ccc(C(F)(F)F)cc3)n2)cc(OC)c1OC`, the IC50 is more than 4.5 µg/mL. In turn, `COC(=O)c1cccc(Nc2nc3ccccc3n2-c2ncnc(Nc3cc(OC)c(OC)c(OC)c3)n2)c1` returned an IC50 of more than 4.5 µg/mL. Compound `COc1cc(Nc2ncnc(Nc3cc(-c4ccc(Cl)c(Cl)c4)n[nH]3)n2)cc(OC)c1OC` yielded an IC50 of 2.4 to 3.5 µg/mL (≈ 4.91 to 7.17 µM). `COc1cc(Nc2ncnc(Nc3ccc(S(=O)(=O)NC(C)=O)cc3)n2)cc(OC)c1OC` returned an IC50 of more than 4.5 µg/mL. `COc1cc(Nc2ncnc(-n3ccc4cc(O)ccc43)n2)cc(OC)c1OC` gave a half-inhibitory concentration (IC50) of more than 4.5 µg/mL. The figure for `COc1cc(Nc2ncnc(-n3c(N)nc4ccccc43)n2)cc(OC)c1` is more than 4.5 µg/mL; for `CN(c1cccc(Cl)c1)c1ncnc(Nc2ccc(S(C)(=O)=O)cc2)n1` it is less than 0.4 µg/mL. As to `COc1cc(Nc2ncnc(N3CCc4ccccc43)n2)cc(OC)c1OC`, the 50% inhibitory concentration (IC50) is more than 4.5 µg/mL.

In the case of `Clc1cccc(Nc2ncnc(Nc3ccc4[nH]ncc4c3)n2)c1`, the IC50 was less than 0.4 µg/mL. The figure for `c1ccc(Nc2ncccc2-c2ncnc(Nc3ccc4[nH]ncc4c3)n2)cc1` is 3.5 to 4.5 µg/mL (≈ 9.2 to 11.8 µM); for `COc1cc(Nc2ncnc(-n3ncc(-c4ccccc4)c3N)n2)cc(OC)c1OC` it is 2.4 to 3.5 µg/mL (≈ 5.72 to 8.34 µM). The figure for `Cc1ccc(Cl)cc1Nc1ncnc(Nc2cc(Cl)ccc2C)n1` is less than 0.4 µg/mL; for `COc1cc(Nc2ncnc(-c3cccnc3Nc3cccc(C#N)c3)n2)cc(OC)c1OC` it is more than 4.5 µg/mL; for `COc1ccc(CNc2nc3ccccc3n2-c2ncnc(Nc3cc(OC)c(OC)c(OC)c3)n2)cc1OC` it is 2.4 to 3.5 µg/mL (≈ 4.42 to 6.44 µM). The figure for `COc1cc(Nc2ncnc(-n3c(NCc4ccc(Br)cc4)nc4ccccc43)n2)cc(OC)c1OC` is more than 4.5 µg/mL. Take `COc1cc(Nc2ncnc(Nc3nc4ccc(F)cc4s3)n2)cc(OC)c1OC`: the half-inhibitory concentration (IC50) is more than 4.5 µg/mL. The figure for `COc1ccc(Oc2ncnc(Nc3cc(OC)c(OC)c(OC)c3)n2)cc1` is 2.4 to 3.5 µg/mL (≈ 6.24 to 9.11 µM); for `COC(=O)c1ccc(-c2cc(Nc3ncnc(NCCN4CCNC4=O)n3)[nH]n2)cc1` it is more than 4.5 µg/mL; for `CC(=O)NCc1ccc(Nc2ncnc(Nc3cc(-c4ccco4)n[nH]3)n2)cc1` it is 0.4 to 2.4 µg/mL (≈ 1.02 to 6.15 µM). `COc1cc(Nc2ncnc(Nc3cc(-c4ccc(C(=O)NCCc5ccccc5)cc4)n[nH]3)n2)cc(OC)c1OC` came in with an IC50 of more than 4.5 µg/mL. In the case of `COc1cc(Nc2ncnc(-n3c(NC(C)C)nc4ccccc43)n2)cc(OC)c1OC`, the half-maximal inhibitory concentration (IC50) is more than 4.5 µg/mL. The figure for `COc1cc(Nc2ncnc(-n3ccc4c(OC)cccc43)n2)cc(OC)c1OC` is more than 4.5 µg/mL; for `COc1cc(Nc2ncnc(Nc3cc(OC)c(OC)c(OC)c3)n2)cc(OC)n1` it is 2.4 to 3.5 µg/mL (≈ 5.79 to 8.45 µM). In the case of `COc1cccc(Nc2ncnc(-c3cccs3)n2)n1`, the IC50 is more than 4.5 µg/mL. The figure for `COc1ccccc1Nc1ncnc(-n2cccc2)n1` is more than 4.5 µg/mL; for `COc1ccc(Nc2ncnc(NCC(=O)c3ccccc3)n2)cc1OC` it is 2.4 to 3.5 µg/mL (≈ 6.57 to 9.58 µM); for `COc1ccc(CNc2ncnc(Nc3cc(-c4ccco4)n[nH]3)n2)cc1` it is more than 4.5 µg/mL. Turning to `O=C(O)/C=C/c1ccc(Nc2ncnc(Nc3cc(-c4ccco4)[nH]n3)n2)cc1`, the IC50 is less than 0.4 µg/mL. The figure for `COC(=O)c1ccc(N(C)c2ncnc(Nc3ccc(OC)c(OC)c3)n2)cc1` is more than 4.5 µg/mL; for `O=C(O)Cc1cccc(Nc2ncnc(-c3cccnc3Nc3ccccc3)n2)c1` it is 0.4 to 2.4 µg/mL (≈ 1 to 6.02 µM). The figure for `CC(C)(C)OC(=O)Nc1ccc(Nc2ncnc(-c3ccccc3)n2)cc1` is more than 4.5 µg/mL; for `COc1cc(Nc2ncnc(Nc3ccc4ccccc4c3)n2)cc(OC)c1OC` it is 0.4 to 2.4 µg/mL (≈ 0.991 to 5.95 µM). The figure for `COc1cc(Nc2ncnc(Nc3ccc(Oc4ccccc4)cc3)n2)cc(OC)c1OC` is less than 0.4 µg/mL; for `COc1ccc(Nc2ncnc(N(C)c3ccc(C(=O)O)cc3)n2)cc1OC` it is more than 4.5 µg/mL; for `CC(=O)c1ccc(Nc2ncnc(Nc3ccc4c(cnn4Cc4ccccc4)c3)n2)cc1` it is less than 0.4 µg/mL. `Nc1ncnc(Nc2cccc(Cl)c2)n1` showed an IC50 of more than 4.5 µg/mL. The figure for `COc1cc(Nc2ncnc(-n3c(Cl)nc4ccccc43)n2)cc(OC)c1OC` is more than 4.5 µg/mL.

These data come from the Kinase Knowledgebase extract (Sharma et al. 2016).
